Measurements from patent publication US6964960B2, “Indoloquinazolinones” (Novartis AG, priority 2000, dated 2005).

What was measured:
[1] = system: pentobarbital-anesthetized rabbit myocardial infarction; assay: pentobarbital-anesthetized rabbit myocardial infarction model; type: in vivo
Description: The cardioprotective activity of the agents of the invention is confirmed in vivo e.g. in a model of pentobarbital-anesthetized rabbit myocardial infarction where the infarct size is reduced upon administration of about 1 to about 100 μmol/kg [For the model, see for example Ytrehus K. et al., Am. J. Physiol 267 (Heart Circ. Physiol. 36): H2383-2390, 1994 and Haessler R. et al., Cardiov. Res. 28: 1574-1580, 1994; for the cardioprotective effect of PARP inhibitors as evidenced in this model, see for example Thiemermann C. et al., Proc. Natl. Acad. Sci. USA 94: 679-683, 1997].

| melting point | SMILES | reduction of infarct size ([1]; highest dose tested (70 μmol/kg i.v., 22.1 mg/kg of the base), single injection five minutes before reperfusion) [%] | effect on infarct size ([1]; single injection at 3-70 μmol/kg i.v. (0.95-22.1 mg/kg i.v. of the base) five minutes before reperfusion) |
| --- | --- | --- | --- |
| 196 to 198 °C | Cl.Cl.O=c1[nH]c2c(CCNCCN3CCOCC3)c3ccccc3n2c2ccccc12 |  |  |
| 245 to 260 °C | CCc1c2ccccc2n2c1[nH]c(=O)c1ccccc12 [Example 1, 7-Ethyl-6H-indolo[1,2-a]quinazoline-5-one] |  |  |
|  | O=c1[nH]c2c(Cc3nnn[nH]3)c3ccccc3n2c2ccccc12 [Example 22, 7-(1 H-Tetrazole-5-ylmethyl)-6H-indolo[1,2-a]quinazoline-5-one] | 60 | dose-dependently reduces infarct size |
| 248 to 252 °C | O=c1[nH]c2c(CCO)c3ccccc3n2c2ccccc12 [Example 61, 7-(2-Hydroxy-ethyl)-6H-indolo[1,2-a]quinazoline-5-one] |  |  |
| > 300 °C | NCCc1c2ccccc2n2c1[nH]c(=O)c1ccccc12 [Example 64, 7-(2-Amino-ethyl)-6H-indolo[1,2-a]quinazoline-5-one] |  |  |
| 165 to 195 °C (dec.) | CCC(N)Cc1c2ccccc2n2c1[nH]c(=O)c1ccccc12 (stereo not shown) [Example 65, 7-(2-Amino-butyl)-6H-indolo[1,2-a]quinazoline-5-one] |  |  |
